# Reference: patent US20030133962A1, “Pest control agent/pf 1022-221” (priority 1999, published 2003)
# Assays:
# silkworms = settings: known from literature (Kanaoka et al. 1979; JP 05 271 013); cited from earlier work
# [1] = system: caterpillars of the diamond back moth (Plutella xylostella); assay: Plutella test/symptomatology study; format: in vivo; settings: 10 μg/larva; 1 μl acetone solution administered to caterpillars
# Experimental: Plutella test/symptomatology study
# To prepare an advantgeous preparation of active compound, 10 mg of active compound are mixed with 1 ml of solvent.
# 1 μl of the solution prepared in this manner is administered to caterpillars of the diamond back moth (Plutella xylostella).
# After the desired period of time, the kill in % is determined 100% means that all caterpillars have been killed; 0% means that none of the caterpillars have been killed.
# [2] = system: larvae of the mustard beetle (Phaedon cochleariae); assay: Phaedon larvae test; format: in vivo; settings: active compound concentration 1000 ppm; dipped cabbage leaves (Brassica oleracea)
# Experimental: (§1) Solvent: 3 parts by weight of dimethylformamide
# (§2) Emulsifier: 1 part by weight of alkylaryl polyglycol ether
# (§3) To produce a suitable preparation of active compound, 1 part by weight of active compound is mixed with the stated amounts of solvent and emulsifier, and the concentrate is diluted with emulsifier-containing water to the desired concentration.
# Cabbage leaves (Brassica oleracea) are treated by being dipped into the preparation of active compound of the desired concentration and populated with larvae of the mustard beetle (Phaedon cochleariae) while the leaves are still moist.
# After the desired period of time, the kill in % is determined. 100% means that all beetle larvae have been killed; 0% means that none of the beetle larvae have been killed.
# Meloidogyne incognita = assay: Meloidogyne test; format: in vivo; settings: active compound concentration 20 ppm; sand, lettuce seeds
# Experimental: as §1, §2
# To produce a suitable preparation of active compound, 1 part by weight of active compound is mixed with the stated amounts of solvent and emulsifier, and the concentrate is diluted with water to the desired concentration.
# Vessels are filled with sand, a solution of the active compound, Meloidogyne incognita-egg larvae suspension and lettuce seeds. The lettuice seeds germinate, and the small plants develop. On the roots, galls are formed.
# After the desired period of time, the nematicidal action is determined in % by the formation of galls. 100% means that no galls have been found; 0% means that the number of galls on the treated plants corresponds to that of the untreated control.
# [3] = system: caterpillars of the army worm (Spodoptera frugiperda); assay: Spodoptera frugiperda test; format: in vivo; settings: active compound concentration 1000 ppm; dipped cabbage leaves (Brassica oleracea)
# Experimental: Spodoptera frugiperda test
# Solvent: 31 parts by weight of acetone
# as §2, §3
# Cabbage leaves (Brassica oleracea) are treated by being dipped into the preparation of active compound of the desired concentration and populated with caterpillars of the army worm (Spodoptera frugiperda) while the leaves are still moist.
# After the desired period of time, the kill in % is determined. 100% means that all caterpillars have been killed; 0% means that none of the caterpillars have been killed.
SMILES,insecticidal activity against silkworms (silkworms),kill rate [1],kill rate [2],nematicidal action (effect) by the formation of galls (Meloidogyne incognita),kill rate [3]
CC(C)C[C@H]1C(=O)O[C@H](Cc2ccccc2)C(=O)N(C)[C@@H](CC(C)C)C(=O)O[C@H](C)C(=O)N(C)[C@@H](CC(C)C)C(=O)O[C@H](Cc2ccccc2)C(=O)N(C)[C@@H](CC(C)C)C(=O)O[C@H](C)C(=O)N1C [PF1022A],insecticidal activity,,,,
CC(C)C[C@H]1C(=O)O[C@H](C(C)C)C(=O)N(C)[C@@H](CC(C)C)C(=O)O[C@H](C(C)C)C(=O)N(C)[C@@H](CC(C)C)C(=O)O[C@H](C(C)C)C(=O)N(C)[C@@H](CC(C)C)C(=O)O[C@H](C(C)C)C(=O)N1C [bassianolide],insecticidal activity,,,,
CC(C)C[C@H]1C(=O)O[C@H](Cc2ccc(N3CCOCC3)cc2)C(=O)N(C)[C@@H](CC(C)C)C(=O)O[C@H](C)C(=O)N(C)[C@@H](CC(C)C)C(=O)O[C@H](Cc2ccc(N3CCOCC3)cc2)C(=O)N(C)[C@@H](CC(C)C)C(=O)O[C@H](C)C(=O)N1C [compound of the formula (I)],,100%,100%,98%,100%
